Results published in PubChem BioAssay AID652167 (The Scripps Research Institute Molecular Screening Center, 2013).
Active and inactive are the calls of the source. No rule for the calls is given here.

Columns and labels:
[1] = test system: WST cytotoxicity, absorbance 620 nm; assay: cytotoxicity by WST viability readout, late-stage follow-up, cytotoxicity control for NOD2-RIPK2 interaction inhibitor project, cell-based, absorbance (AID 652167)
[2] = as above; details: WST cytotoxicity, absorbance 620 nm; WST absorbance; at 10 µM; stronger effect = lower value

| Structure (SMILES) | IC50 [1] | absorbance [2] |
| --- | --- | --- |
| O=S(=O)(c1ccc(F)cc1)N1CCCCCC1 | > 10 µM (inactive) | 1 |
| Cc1cc(S(=O)(=O)N2CCCCCC2)ccc1F | > 10 µM (inactive) | 1 |
| Cc1nc([N+](=O)[O-])c(Br)n1Cc1ccc(Cl)c(Cl)c1 | > 10 µM (inactive) | 0.974 |
| COc1ccc(C(C[N+](=O)[O-])n2nc(C)cc2C)cc1 (configuration not stated) | > 10 µM (inactive) | 0.973 |
| Cc1ncc([N+](=O)[O-])n1Cc1ccc(Cl)c(Cl)c1 | > 10 µM (inactive) | 1.01 |
| Cc1nc([N+](=O)[O-])c(Br)n1Cc1ccccc1 | > 10 µM (inactive) | 0.991 |
| O=[N+]([O-])c1cc(S(=O)(=O)N2CCCCCC2)ccc1F | > 10 µM (inactive) | 0.991 |
| Cc1ccc(S(=O)(=O)N2CCCCCC2)cc1[N+](=O)[O-] | > 10 µM (inactive) | 0.99 |
| Cc1ccc(C(C[N+](=O)[O-])n2nc(C)cc2C)cc1 (configuration not stated) | > 10 µM (inactive) | 0.968 |
| O=[N+]([O-])c1cccc(S(=O)(=O)N2CCCCCC2)c1 | > 10 µM (inactive) | 0.999 |
| O=S(=O)(c1ccccc1)N1CCCCCC1 | > 10 µM (inactive) | 0.969 |
